From patent US20250170136A1, “1,2,4-TRIAZIN-3(2H)-ONE COMPOUNDS FOR THE TREATMENT OF HYPERPROLIFERATIVE DISEASES” (BAYER AKTIENGESELLSCHAFT, priority 2019, published 2025)

Tests used:
HeLa cells = test: Cell proliferation measurement (CellTiter-Glo, 72 h); type: cell-based; settings: Homo sapiens, anti-proliferation
Protocol: (§1) The antiproliferative activity of the compounds of the general formula (I) was examined in vitro in human cancer cells. […] After 24 h, cells on one plate (0 h plate) were treated with 30 μl/cavity of CTG solution (Promega Cell Titer Glo (catalogue #G755B and G756B)) and incubated at room temperature for 10 min, and luminescence was measured by means of a VICTOR V (Perkin Elmer), in order to determine cell viability on commencement of treatment. The cells on the test plate were treated with the compounds of the general formula (I) as and incubated at 37° C. for 72 h. The compounds were added to the cells by means of an HP D300 digital dispenser in a 10-step 2,5-fold dilution series generally starting at a maximum final drug concentration of 100 nM, or 30 μM in the case of COV318. As control, the cells were treated with vehicle (DMSO at 0.3% final concentration). After 72 h, the cells were treated with 30 μl/cavity of CTG solution (Promega Cell Titer Glo (catalogue #G755B and G756B)) and incubated at room temperature for 10 min, and luminescence was measured by means of a VICTOR V (Perkin Elmer), in order to determine cell viability at the end of treatment. The percentage effect on cell growth and the IC50 derived therefrom were determined for each test substance using the values from the 0 h plate (=maximum inhibition) and the DMSO control (=minimum inhibition). The IC50 values were calculated using a 4-parameter fit.

SK-MEL-3 cells = test: as above; type: cell-based; settings: Homo sapiens, SK-MEL3; anti-proliferation, SK-MEL-3, 72 h
Protocol: as §1

human full length PDE3A = human full length PDE3A (Homo sapiens (Human), UniProt Q14432); test: PDE3A enzyme inhibition (3H-cAMP Scintillation Proximity Assay); type: biochemical; settings: Sf9 cell extract, 60 min room temperature
human full length PDE3A, sequence (Q14432 whole entry): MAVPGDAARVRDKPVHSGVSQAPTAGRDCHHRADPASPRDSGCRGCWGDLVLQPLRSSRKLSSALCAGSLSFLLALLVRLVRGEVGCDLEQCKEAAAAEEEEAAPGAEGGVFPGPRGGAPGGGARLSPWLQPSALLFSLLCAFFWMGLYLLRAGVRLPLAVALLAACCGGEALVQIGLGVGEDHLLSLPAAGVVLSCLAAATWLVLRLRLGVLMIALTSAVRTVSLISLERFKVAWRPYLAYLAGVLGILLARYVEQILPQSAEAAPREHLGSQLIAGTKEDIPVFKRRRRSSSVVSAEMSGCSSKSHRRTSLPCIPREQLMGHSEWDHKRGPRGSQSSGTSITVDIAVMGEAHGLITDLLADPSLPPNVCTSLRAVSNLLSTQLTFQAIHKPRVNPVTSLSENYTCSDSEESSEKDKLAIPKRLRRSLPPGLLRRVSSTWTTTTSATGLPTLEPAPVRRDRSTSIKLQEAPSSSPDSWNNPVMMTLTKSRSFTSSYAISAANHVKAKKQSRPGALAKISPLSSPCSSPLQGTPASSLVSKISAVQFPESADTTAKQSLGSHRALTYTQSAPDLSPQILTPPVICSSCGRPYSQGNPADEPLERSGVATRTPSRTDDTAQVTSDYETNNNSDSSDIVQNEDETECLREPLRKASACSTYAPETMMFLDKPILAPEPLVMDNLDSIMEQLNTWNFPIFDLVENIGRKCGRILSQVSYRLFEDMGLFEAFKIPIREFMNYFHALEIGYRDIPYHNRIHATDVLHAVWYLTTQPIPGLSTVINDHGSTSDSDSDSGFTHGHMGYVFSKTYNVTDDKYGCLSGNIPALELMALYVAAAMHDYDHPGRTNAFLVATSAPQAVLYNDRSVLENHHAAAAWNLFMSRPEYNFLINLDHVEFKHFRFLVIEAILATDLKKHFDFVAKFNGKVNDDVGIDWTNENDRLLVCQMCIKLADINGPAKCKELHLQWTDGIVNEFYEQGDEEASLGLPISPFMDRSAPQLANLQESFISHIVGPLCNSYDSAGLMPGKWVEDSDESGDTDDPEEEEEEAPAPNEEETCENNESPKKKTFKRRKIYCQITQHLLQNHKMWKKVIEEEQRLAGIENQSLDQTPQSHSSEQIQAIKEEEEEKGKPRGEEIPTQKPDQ
Protocol: (§2) The commercially available 3H-cAMP Scintillation Proximity Assay (SPA, Perkin Elmer) system was used for enzyme inhibition studies. For the determination of the in vitro effect of example compounds on the PDE3A reactions 2 μl of the respective example compound solution in DMSO (serial dilutions) were placed in wells of microtiter plates (Isoplate-96/200W; Perkin Elmer). 50 μl of a dilution of PDE3A cell extract from Sf9 cells overexpressing human full length PDE3A (SB Drug Discovery, UK) in buffer A (50 mM Tris/HCl pH 7.5, 8.3 mM MgCl2, 1.7 mM EDTA, 0.2% BSA) was added. The dilution of the PDE3A cell extract was chosen such that the reaction kinetics was linear and less than 70% of the substrate was consumed (typical dilution 1:5000). The reaction was started by addition of 50 μl (0.025 μCi) of 1:2000 in buffer A w/o BSA diluted substrate [8-3H]adenosine 3′, 5′-cyclic phosphate (1 μCi/μl; Perkin Elmer). After incubation at room temperature for 60 min, the reaction was stopped by addition of 25 μl of a suspension containing 18 mg/ml yttrium scintillation proximity beads (Perkin Elmer) in water. The microtiter plates were sealed and measured in a Microbeta scintillation counter (PerkinElmer Wallac). IC50 values were determined from sigmoidal curves by plotting percentage PDE3A activity vs log compound concentration.

human full length PDE3B = human full length PDE3B (Homo sapiens (Human), UniProt Q13370); test: PDE3B enzyme inhibition (3H-cAMP Scintillation Proximity Assay); type: biochemical; settings: Sf9 cell extract, 60 min room temperature
human full length PDE3B, sequence (Q13370 whole entry): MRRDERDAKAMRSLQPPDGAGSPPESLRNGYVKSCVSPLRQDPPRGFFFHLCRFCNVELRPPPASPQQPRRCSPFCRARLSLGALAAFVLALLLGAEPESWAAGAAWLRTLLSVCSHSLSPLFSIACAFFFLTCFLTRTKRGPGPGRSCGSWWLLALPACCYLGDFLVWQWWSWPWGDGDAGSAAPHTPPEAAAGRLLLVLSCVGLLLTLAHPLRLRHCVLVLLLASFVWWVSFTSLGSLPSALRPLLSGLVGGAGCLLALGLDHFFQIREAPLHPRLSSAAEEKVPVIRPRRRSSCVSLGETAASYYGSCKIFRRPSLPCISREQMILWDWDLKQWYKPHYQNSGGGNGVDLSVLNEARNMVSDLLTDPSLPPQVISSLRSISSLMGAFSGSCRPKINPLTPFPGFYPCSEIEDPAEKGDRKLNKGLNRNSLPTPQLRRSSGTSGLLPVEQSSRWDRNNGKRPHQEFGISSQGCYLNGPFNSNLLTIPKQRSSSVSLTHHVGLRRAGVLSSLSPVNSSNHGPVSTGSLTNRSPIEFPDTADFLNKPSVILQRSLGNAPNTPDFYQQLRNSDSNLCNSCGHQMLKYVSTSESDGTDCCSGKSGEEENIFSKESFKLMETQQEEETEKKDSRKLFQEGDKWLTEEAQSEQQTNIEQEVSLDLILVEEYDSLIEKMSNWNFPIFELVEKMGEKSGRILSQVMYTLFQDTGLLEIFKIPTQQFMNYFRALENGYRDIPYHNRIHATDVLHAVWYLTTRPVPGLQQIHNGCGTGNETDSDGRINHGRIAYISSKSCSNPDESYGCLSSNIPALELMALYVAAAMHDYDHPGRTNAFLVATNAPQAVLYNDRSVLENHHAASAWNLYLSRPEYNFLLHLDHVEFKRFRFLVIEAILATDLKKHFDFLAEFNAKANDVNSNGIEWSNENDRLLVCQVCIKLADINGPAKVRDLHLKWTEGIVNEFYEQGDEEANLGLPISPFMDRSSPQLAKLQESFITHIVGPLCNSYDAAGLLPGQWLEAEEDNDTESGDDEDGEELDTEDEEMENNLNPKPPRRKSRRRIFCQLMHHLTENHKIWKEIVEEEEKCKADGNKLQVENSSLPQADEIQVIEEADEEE
Protocol: as §2, with “PDE3B” for “PDE3A”, “1:6000).” for “1:5000).”

Structure (SMILES)	IC50 (HeLa cells)	IC50 (SK-MEL-3 cells)	IC50 (human full length PDE3A)	IC50 (human full length PDE3B)
C[C@@H]1NC(=O)NN=C1c1ccc(NCc2ccn[nH]2)c(C(F)(F)F)c1 [Example 2, (5S)-5-methyl-6-[4-{[(1H-pyrazol-5-yl)methyl]amino}-3-(trifluoromethyl)phenyl]-4,5-dihydro-1,2,4-triazin-3(2H)-one]	0.7 nM	0.3 nM	5 nM	6 nM
C[C@@H]1NC(=O)NN=C1c1ccc(NC2CCCC2)c(C(F)(F)F)c1 [Example 4, (5S)-6-[4-(cyclopentylamino)-3-(trifluoromethyl)phenyl]-5-methyl-4,5-dihydro-1,2,4-triazin-3(2H)-one]	0.1 nM	0.4 nM	2 nM	1 nM
C[C@@H]1NC(=O)NN=C1c1ccc(NCc2cnccn2)c(C(F)(F)F)c1 [Example 6, (5S)-5-methyl-6-[4-{[(pyrazin-2-yl)methyl]amino}-3-(trifluoromethyl)phenyl]-4,5-dihydro-1,2,4-triazin-3(2H)-one]	0.3 nM	0.7 nM	4 nM	5 nM

The remaining compounds from weak to strong by IC50 (HeLa cells), led by results:

IC50 (HeLa cells)	IC50 (SK-MEL-3 cells)	IC50 (human full length PDE3A)	IC50 (human full length PDE3B)	Structure (SMILES)
0.2 nM	0.6 nM	4 nM	5 nM	C[C@@H]1NC(=O)NN=C1c1ccc(NC[C@@H](O)C(F)(F)F)c(C(F)(F)F)c1 [Example 5, (5S)-5-methyl-6-[4-{[(2R)-3,3,3-trifluoro-2-hydroxypropyl]amino}-3-(trifluoromethyl)phenyl]-4,5-dihydro-1,2,4-triazin-3(2H)-one]
0.1 nM	0.3 nM	2 nM	1 nM	C[C@@H]1NC(=O)NN=C1c1ccc(N2CC(C)(O)C2)c(C(F)(F)F)c1 [Example 3, (5S)-6-[4-(3-hydroxy-3-methylazetidin-1-yl)-3-(trifluoromethyl)phenyl]-5-methyl-4,5-dihydro-1,2,4-triazin-3(2H)-one]
